In patent publication US5547970A, “Use of leflunomide for inhibiting tumor necrosis factor alpha” (priority 1993, dated 1996):
Entries after “also recorded” stand apart in the source; their conditions may differ.

Tests used:
[1] = Metabolism of leflunomide in the test sample (mononuclear cell fraction), HPLC; format: in vitro ADME, human; conditions: human, mononuclear cells; mononuclear cell fraction, 37° C., HPLC; read-out: half life of metabolism of leflunomide to its metabolites (converted)
mononuclear cells = experiment: as above; format: in vitro ADME, human; conditions: in words; isolated mononuclear blood cells
TNFalpha = experiment: Inhibition of lipopolysaccharide-induced synthesis and liberation of TNFalpha in human mononuclear blood cells (sandwich enzyme immuno test); format: cell-based; conditions: for activity at 10 µM: 0.01 mmol/l; for activity at 100 µM: 0.1 mmol/l; for inhibitory effect on the synthesis and liberation of cytokines from human blood cells / effect on the TNFalpha level: in words; for effect on the TNFalpha level: experiments in Tab. 1
Protocol: The cell fraction which was visible as a white ring at the phase boundary was removed with the aid of a syringe, diluted 1:1 (v/v) with PM-16 buffer (from Serva Feinbiochemica GmbH & Co. KG, Heidelberg) and then centrifuged once again, as above, for 10 min. […] Using a cell counter (type IT, from Coulter Diagnostics, Krefeld), the cell suspension, which is composed of about 90% lymphocytes and 10% monocytes, was adjusted to about 5 million cells/ml. Cell viability was monitored before and after the inhibition experiments using the known lactate dehydrogenase method.
The synthesis and liberation of cellular TNFalpha was induced by adding a solution of 500 ng of lipopolysaccharide (Salmonella abortus equi, Sigma GmbH, Deisenhofen) in 0.01 ml of dimethyl sulfoxide/water (1:10, v/v) to 0.48 ml of the above-described cell fraction. At the same time, a solution of leflunomide or leflunomide metabolite in 0.01 ml of dimethylsulfoxide (for the final concentration in each case, see Tab. 1) was added to the cell fraction and the mixture was left at 37° C. for 20 h in a commercially available incubator. After cooling down to 0° C., the samples were centrifuged for 1 min. in a bench centrifuge. and in each case 0.025 ml aliquots of the supernatant were examined for their TNFalpha content using a "sandwich" enzyme immuno test kit (from Biermann GmbH, Bad Nauheim) in accordance with the manufacturer's instructions. The control values were determined without the addition of leflunomide or its metabolites and set at 100%. In particular, any possible influence of dimethylsulfoxide on the TNFalpha level was excluded by appropriate comparative measurements.

[2] = Homo sapiens, LPS 500 ng, 37° C., 20 h, control = 100%, read-out: TNFalpha in the supernatant % +/- standard deviation

Row | Compound | half-life [1] | metabolism of leflunomide under the experimental conditions (mononuclear cells) | activity at 10 µM (TNFalpha; [2]) | activity at 50 µM (TNFalpha; Homo sapiens, 0.05 mmol/l, LPS 500 ng, 37° C., 20 h, control = 100%, read-out: TNFalpha in the supernatant % +/- standard deviation) | activity at 100 µM (TNFalpha; [2]) | inhibitory effect on the synthesis and liberation of cytokines from human blood cells (TNFalpha) | effect on the TNFalpha level (TNFalpha)
1 | Cc1oncc1C(=O)Nc1ccc(C(F)(F)F)cc1 [Leflunomide, N-(4-trifluoromethylphenyl)-5-methylisoxazole-4-carboxamide] | ~10 h | did not, to any appreciable extent, metabolize; also recorded: only very slowly; also recorded: no appreciable metabolism | 100 ± 15% | 35% | 28 ± 5% | strong inhibitory effect | clearly lowered
2 | C/C(O)=C(\C#N)C(=O)Nc1ccc(C(F)(F)F)cc1 [Leflunomide metabolite, N-(4-trifluoromethylphenyl)-2-cyano-3-hydroxycrotonamide] | – | – | 102 ± 12% | – | 105% | does not exhibit this advantageous effect | practically no effect on the TNFalpha level
